Test results from paper PMC4922569, “Antifibrotic Effects of the Dual CCR2/CCR5 Antagonist Cenicriviroc in Animal Models of Liver and Kidney Fibrosis” (PLoS ONE, 2016).
Where a name gives a salt, the structure may show the parent alone.

Legend:
[1] = CVC plasma levels in the TG-induced model of peritonitis (LC/MS/MS); format: in vivo; details: male, C57BL/6, mouse, oral, 20 mg/kg/day, CVC20 QD, n = 5, 26 hours post-dose, read-out: CVC trough plasma level
Procedure: Male C57BL/6 mice (n = 44; 8–10 weeks of age; Charles River Laboratories, Canada) were allocated to receive treatments via oral gavage (PO) on Days 1–5 in the following groups: non-disease control, vehicle control twice daily (BID), CVC 5 mg/kg/day (CVC5) BID, CVC 20 mg/kg/day (CVC20) BID, CVC 100 mg/kg/day (CVC100) BID, CVC20 QD, and positive control dexamethasone (corticosteroid known to reduce inflammation in a variety of animal models) 1 mg/kg QD (S1 Table). On Day 4, peritonitis was induced via IP injection of TG 3.85% (1 mL/animal) 2 hours post-dose in all groups except non-disease controls. Study endpoints included: peritoneal lavage cell counts and pharmacokinetic (PK) evaluation. Animals were sacrificed 48 hours post-TG injection by isoflurane inhalation, and peritoneal lavage and blood samples (0.7 mL) were collected. Differential cell counts were assessed in peritoneal lavage samples using an Advia® Hematology System (Siemens Healthcare Diagnostics, USA) with multispecies software and an analysis software designed for mouse peritoneal fluid on Advia® 120 (LabThruPut, USA). A 0.3 mL aliquot of the blood sample was processed to plasma for PK analysis.
CVC plasma levels (minimum and maximum) were determined by KCAS Bioanalytical Services, USA, using a validated liquid chromatography-tandem mass spectrometry (LC/MS/MS) plasma method (50 μL assay, range 10.0−1920.0 ng/mL).

[2] = Body and liver weights, NASH model; format: in vivo, mouse; details: mean±SD
Procedure: NASH was induced in male C57BL/6 mice (Charles River Laboratories, Japan) via subcutaneous injection of 200 μg of streptozotocin 2 days post-birth (causing mild islet inflammation and islet destruction) plus a high-fat diet (57 kcal% fat) from 4 weeks of age (sequentially causing fatty changes to the liver, NASH and fibrosis). From Weeks 6 to 9, three groups (n = 9/group) received vehicle control, CVC20 or CVC100 BID PO (S1 Table). At Week 9, six animals per group were sacrificed for assessment of liver fibrosis and Non-Alcoholic Fatty Liver Disease (NAFLD) Activity Score (NAS). The animals were sacrificed by exsanguination through direct cardiac puncture under ether anesthesia. Study endpoints included: body and liver weights, plasma biochemistry (e.g. ALT and CCL2), extracellular matrix protein in liver tissue (hydroxyproline content), mRNA expression (collagen type 1, tumor necrosis factor-alpha, MCP-1, TIMP1) and histopathological analyses. Blood samples were collected and plasma samples derived for biochemistry assessments. Sections were cut from paraffin blocks of liver tissue, prefixed in Bouin’s solution and stained with H&E for histological examination.
(§1) Body weight (measured before and during treatment) and sacrificed animal body and liver/kidney/spleen weights were recorded.

[3] = Body and kidney weights and clinical condition, UUO model; format: in vivo; details: for Contralateral kidney weight / Final body weight / Obstructed kidney weight: UUO model, average±SEM
Procedure: Male CD-1 mice (n = 51; 7–8 weeks of age; Charles River Laboratories, USA) were allocated to weight-matched treatment groups on Day -1 (1 day prior to either sham [one group] or permanent right UUO surgery [five groups] via aseptic laparotomy). From Days -1 to 4, mice received phosphate-buffered saline (PBS) IP QD, apart from a positive-control group, which received 1D11 (anti-TGF-beta1 antibody) 3 mg/kg IP QD. From Days 0 to 5, mice received vehicle control (sham surgery, UUO-control and UUO+positive-control groups) or CVC 7 mg/kg/day (CVC7), CVC20 or CVC100 PO BID (S1 Table). […] Study endpoints included: body and kidney weights, mRNA expression (TGF-beta, connective tissue growth factor, MCP-1, alpha-SMA, collagen 1a1, fibronectin-1 and collagen 3a1), extracellular matrix protein in renal cortical tissue (hydroxyproline content) and histological analyses. Blood and tissue samples were collected from anesthetized mice 4 hours post-dose on Day 5, prior to sacrifice. A mid-transverse section of the right obstructed kidney was collected for histological analysis.
as §1

[4] = tested on: CCR5 on CD4+ and CD8+ T-cells; design: method as in earlier work; details: human PBMC ex vivo, cited from earlier work
[5] = in mice; cited from earlier work
MCD-induced NASH = details: cited from earlier work
[6] = CVC100 PO BID, UUO surgery, group terminated due to poor clinical condition

**Q.** Which concentration at 26 h [1] does the source give for CCCCOCCOc1ccc(-c2ccc3c(c2)/C=C(/C(=O)Nc2ccc([S@@+]([O-])Cc4cncn4CCC)cc2)CCCN3CC(C)C)cc1 [CVC, cenicriviroc mesylate] here?
**A.** 25.7 ± 8.1 ng/mL

**Q.** What about the Final body weight ([2]; CVC 20 mg/kg/day) of the same compound?
**A.** 19.5 ± 2.0 g

**Q.** What about the Liver weight ([2]; CVC 20 mg/kg/day) of the same compound?
**A.** 1334 ± 99 mg

**Q.** What about the Liver-to-body weight ratio ([2]; CVC 20 mg/kg/day) of the same compound?
**A.** 6.9±1.0%

**Q.** And the Final body weight ([2]; CVC 100 mg/kg/day)?
**A.** 18.7 ± 0.9 g

**Q.** And the Liver weight ([2]; CVC 100 mg/kg/day)?
**A.** 1307 ± 119 mg

**Q.** And the Liver-to-body weight ratio ([2]; CVC 100 mg/kg/day)?
**A.** 7.0±0.8%

**Q.** And the “Decrease in body weight vs UUO control” value ([3]; CVC20, Day 5, p < 0.05)?
**A.** 5%

**Q.** And the “Animals died prior to end of study” value [3, 6]?
**A.** 6/9

**Q.** And the “Animals euthanized prior to end of study” value [3, 6]?
**A.** 3/9

**Q.** And the Contralateral kidney weight ([3]; CVC 7 mg/kg/day)?
**A.** 221.0 ± 10.1 mg

**Q.** What about the Final body weight ([3]; CVC 7 mg/kg/day) of the same compound?
**A.** 26.3 ± 0.5 g

**Q.** What about the Obstructed kidney weight ([3]; CVC 7 mg/kg/day) of the same compound?
**A.** 232.0 ± 11.9 mg

**Q.** And the Contralateral kidney weight ([3]; CVC 20 mg/kg/day)?
**A.** 202.4 ± 6.1 mg

**Q.** And the Final body weight ([3]; CVC 20 mg/kg/day)?
**A.** 25.7 ± 0.4 g

**Q.** And the Obstructed kidney weight ([3]; CVC 20 mg/kg/day)?
**A.** 217.0 ± 6.7 mg

**Q.** What about the “Receptor occupancy for CCR5 on CD8+ T-cells” value ([4]; at 2.3 nmol/L) of the same compound?
**A.** ≥ 90%

**Q.** And the “Receptor occupancy for CCR5 on CD4+ T-cells” value ([4]; at 3.1 nmol/L)?
**A.** ≥ 90%

**Q.** What about the Half-life [5] of the same compound?
**A.** ~ 2 hours

**Q.** What about the “Infiltration of Ly6Chi monocyte-derived macrophages into the liver” value (MCD-induced NASH; MCD model, preliminary data) of the same compound?
**A.** significantly decreased

**Q.** And the “Hepatic fibrosis (Sirius red staining and hydroxyproline content)” value (MCD-induced NASH; chronic MCD model of NASH)?
**A.** reduced

**Q.** And the “Steatohepatitis, assessed by histological NAFLD activity score” value (MCD-induced NASH; chronic MCD model of NASH)?
**A.** significantly ameliorated
